Experiments:
Assay type in all cases: cell-based, human
[1] = test system: peripheral blood mononuclear cells (PBMC) with allogeneic PBMC or RPMI1788 stimulator cells; assay: Mixed lymphocyte reaction (MLR) test, [3H]-thymidine incorporation; details: Table 1; 5 days incubation + 16 h thymidine
Source text: (§1) Various models may be used for testing an immunosuppressive effect. In vivo, for example, different transplantation models are available. They are strongly influenced by different immunogenicities, depending on the donor and recipient species used and depending on the nature of the transplanted organ. The survival time of transplanted organs can thus be used to measure the suppression of the immune response. In vitro, the most used models are lymphocyte activation tests. Usually activation is measured via lymphocyte proliferation. Inhibition of proliferation thus always means immunosuppression under the experimental conditions applied. There exist different stimuli for lymphocyte activation: • a) co-culture of lymphocytes of […] (mixed lymphocyte reaction, hereinafter referred as MLR) in a so-called mixed lymphocyte culture test: lymphocytes expressing different minor and major antigens of the HLA-DR type (=alloantigens) activate each other non-specifically. • b) a CD3 assay here there is an activation of the T-lymphocytes via an exogenously added antibody (OKT3).
(§2) All reagents were dissolved in 0.5 ml dimethylsulfoxide (hereinafter referred as DMSO) and further diluted in culture medium before use for the following in vitro experiments. The commercially available culture medium consisted of RPMI-1640+10% foetal calf serum (FCS).
Peripheral blood mononuclear cells (hereinafter referred as PBMC) were isolated from heparinized peripheral blood by density gradient centrifugation over Lymphoprep (Nycomed, Maorstua, Norway). Allogeneic PBMC or Eppstein-Barr Virus-transformed human B cells [commercially available under the trade name RPM11788 (ATCC name CCL156)] which strongly express B7-1 and B7-2 antigens were used as stimulator cells after irradiation with 30 Gy. MLR was performed in triplicate wells. After 5 days incubation at 37° C., 1 μCi [^3 H]-thymidine was added to each cup. After a further 16 hours incubation, cells were harvested and counted in a β-counter. Inhibition of proliferation by a compound (drug) described in some of the previous examples was counted using the formula: [formula] wherein cpm is the thymidine count per minute. Assays for CD3 and CD 28

[2] = test system: highly purified T cells stimulated by immobilized anti-CD3 mAb; assay: CD3 assay: T-cell proliferation stimulated by anti-CD3 mAb + PMA (BrdU); details: Table 1; anti-CD3 mAb + PMA 0.5 ng/ml, 48 h; read-out: CD 3 IC50
Source text: as §1, §2
(§3) T cells were purified by removing non-T cells. Briefly, monocytes were removed by cold agglutination. The resulting lymphoid cells were further purified by a cell enrichment immunocolumn [Cellect Human T commercially available from Biotex, Edmonton, Alberta, Canada)] by a process of negative selection.
(§4) Highly purified T cells (10^6/ml) were stimulated by immobilized anti-CD3 or anti-CD28 monoclonal antibodies (hereinafter referred as mAb) in the presence of PMA. Anti-CD3 mAb (available from CLB, Amsterdam, Netherlands) were fixed on the 96-microwell plates by incubating the wells with 50 μl of mAb solution (1/800 dilution in culture medium). For anti-CD28 mAb (available from CLB, Amsterdam, Netherlands) 50 μl (1/650 dilution in culture medium) was added directly to the wells. Further, a 20 μl phorbol myristate acetate (hereinafter referred as PMA (commercially available from Sigma, St. Louis, Mo., USA) solution (final concentration: 0.5 ng/ml) was added. Subsequently, 20 μl of a compound described in some of the previous examples were added by serial dilution in triplicate wells. Finally 100 μl of the T-cell suspension (10^6/ml) was added. After 48-hour incubation at 37° C. in 5% CO2 20 μl of a bromo-deuridine (hereinafter referred as BrdU) 100 μM solution (commercially available as Cell Proliferation Elisa from Boehringer-Mannheim Belgium) was added to each well. After a further overnight incubation, T-cell proliferation was measured using a colorimetric immunoassay for qualification of cell proliferation based on the incorporation of BrdU during DNA synthesis. Optical density (hereinafter referred as OD) was measured by a Behring EL311 plate reader at 450 nm (reference wavelength: 690 nm). Inhibition of proliferation by a compound (drug) described in some of the previous examples was counted using the formula: [formula]

[3] = test system: highly purified T cells stimulated by anti-CD28 mAb; assay: CD28 assay: T-cell proliferation stimulated by anti-CD28 mAb + PMA (BrdU); details: Table 1; anti-CD28 mAb + PMA 0.5 ng/ml, 48 h
Source text: as §1, §2, §3, §4

Compound	IC50 [1] [µM]	IC50 [2] [µM]	IC50 [3] [µM]
COC(=O)C(Br)C(Br)c1cnc2c(n1)c(=O)n(C)c(=O)n2C (stereo not drawn) [Example 11, 6-(1,2-dibromo-2-(methoxycarbonyl)ethyl)-1,3-dimethyllumazine]	12	0.55	0.08
Cn1c(=O)c2nc(C#N)c(NCc3ccccc3)nc2n(C)c1=O [Example 53, 6-cyano-7-benzylamino-1,3-dimethyl-lumazine]	140	140	104
CCOC(=O)c1nc2c(=O)n(C)c(=O)n(C)c2nc1SCC [Example 65, 6-ethylcarboxylate-7-mercaptoethyl-1,3-dimethyl-lumazine]	140	116	116
CCOC(=O)c1nc2c(=O)n(C)c(=O)n(C)c2nc1NCC(C)(C)C [Example 61, 6-ethylcarboxylate-7-neopentylamino-1,3-dimethyl-lumazine]	16	80	16
Cn1c(=O)c2nc(C(O)C[N+](=O)[O-])cnc2n(C)c1=O (stereo not drawn) [Example 17, 6-[(1-hydroxy-2-nitro)ethyl]-1,3-dimethyllumazine]	90	25	15
Cn1c(=O)c2nc(C#N)c(SCc3ccccc3)nc2n(C)c1=O [Example 59, 6-cyano-7-mercaptobenzyl-1,3-dimethyl-lumazine]	> 200	18.5	16
COC(=O)/C=C/c1cnc2c(=O)n(C)c(=O)n(C)c2n1 [Example 24, 7-[(E)-2-methoxycarbonylethenyl]-1,3-dimethyl-lumazine]	15	12	12
Cn1c(=O)c2nc(C=Cc3ccc(C(F)(F)F)cc3)cnc2n(C)c1=O [Example 77, 6-[2-(p-trifluoromethylphenyl)ethenyl]-1,3-dimethyllumazine]	17	> 200	140
Cc1nc2c(nc1N1CCCC1)c(=O)n(C)c(=O)n2C [Example 74, 6-pyrrolidinyl-1,3,7-trimethyl-lumazine]	140	92	128
CCOC(=O)CSc1nc2c(nc1C(Cl)Cl)c(=O)n(C)c(=O)n2C [Example 72, 6-dichloromethyl-7-ethylmercaptoacetate-1,3-dimethyl-lumazine]	116	> 20	19
CCOC(=O)c1nc2c(=O)n(C)c(=O)n(C)c2nc1N1CCCCC1 [Example 63, 6-ethylcarboxylate-7-piperidinyl-1,3-dimethyl-lumazine]	104	128	80
Cn1c(=O)c2ncc(/C=C/c3ccncc3)nc2n(C)c1=O [Example 22, 1,3-dimethyl-7-[(E)-2-(pyrid-4-yl)vinyl]lumazine]	75	125	100
Cn1c(=O)c2nc(C=O)c(NCCO)nc2n(C)c1=O [Example 67, 6-formyl-7-hydroxyethylamino-1,3-dimethyl-lumazine]	104	104	104
Cn1c(=O)c2nc(C(Cl)Cl)c(Cl)nc2n(C)c1=O [Example 50, 6-dichloromethyl-7-chloro-1,3-dimethyl-lumazine]	4	9.5	9.5
C=CCNc1nc2c(nc1C(=O)OCC)c(=O)n(C)c(=O)n2C [Example 62, 6-ethylcarboxylate-7-(2-propenylamino)-1,3-dimethyl-lumazine]	60	92	56
Cc1nc2c(nc1NCc1ccccc1)c(=O)n(C)c(=O)n2C [Example 73, 6-benzylamino-1,3,7-trimethyl-lumazine]	44	92	128
Cn1c(=O)c2nc(/C=C/C=Cc3ccccc3)cnc2n(C)c1=O [Example 9, 1,3-dimethyl-6-[(E)-4-(phenyl)butadienyl]lumazine]	75	140	140

From patent US6946465B2, “Immunosuppressive effects of pteridine derivatives” (4 AZA Bioscience NV, priority 1999, dated 2005)
